# Reference: patent US12492173B2, “Herbicidal substituted N-tetrazolyl aryl carboxamides” (Bayer Aktiengesellschaft, priority 2019, dated 2025)
# Key:
# Assay type in all cases: in vivo
# [1] = system: Matricaria inodora; experiment: Pre-emergence herbicidal action, MATIN; set-up: key to Herbicidal action against MATIN: % activity: 100 = plants have died, 0 = like control plants; conditions: for herbicidal activity MATIN / herbicidal action MATIN: dosage 320 g/ha; for herbicidal activity MATIN: scored visually after 3 weeks vs untreated controls (100% = plants have died); for Herbicidal action against MATIN: comparative experiment
# How it was run: (§1)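 Sown pots (sandy loam) sprayed pre-emergence → greenhouse → visual rating at 3 weeks; % activity vs untreated control, 100% = dead.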
# [2] = system: Setaria viridis; experiment: Post-emergence herbicidal action, SETVI; set-up: key: % herbicidal action vs untreated; 100 = plants died, 0 = like control
# How it was run: (§2)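 Visual % damage versus untreated plants, scored about 3 weeks post-spray (100% = dead, 0% = like control). Greenhouse plants in sandy loam were treated at one-leaf stage with WP/EC formulations in water at 600 to 800 l/ha plus 0.2% wetting agent.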
# [3] = system: Abutilon theophrasti; experiment: Post-emergence herbicidal action, ABUTH; set-up: key: % herbicidal action vs untreated; 100 = plants died, 0 = like control
# How it was run: as §2
# [4] = system: Echinochloa crus-galli; experiment: Post-emergence herbicidal action, ECHCG; set-up: key: % herbicidal action vs untreated; 100 = plants died, 0 = like control
# How it was run: as §2
# [5] = system: Veronica persica; experiment: Pre-emergence herbicidal action, VERPE; set-up: key to Herbicidal action against VERPE: % activity: 100 = plants have died, 0 = like control plants; conditions: for herbicidal activity VERPE / herbicidal action VERPE: dosage 320 g/ha; for herbicidal activity VERPE: scored visually after 3 weeks vs untreated controls (100% = plants have died); for Herbicidal action against VERPE: comparative experiment
# How it was run: as §1
# [6] = system: Alopecurus myosuroides; experiment: Post-emergence herbicidal action, ALOMY; set-up: key: % herbicidal action vs untreated; 100 = plants died, 0 = like control
# How it was run: as §2
# [7] = comparative experiment, post-emergence, 20 g of a.i./ha
# [8] = comparative experiment, post-emergence, 5 g of a.i./ha
smiles,measurement,setting,value
CCn1nnnc1NC(=O)c1ccc(C(F)(F)F)c(C[S+]([O-])CC)c1Cl (stereo not shown) [Example 2-300],herbicidal activity MATIN,[1],100%
same,herbicidal action SETVI,"[2]; post-emergence, dosage 80 g/ha",100%
same,herbicidal action ABUTH,"[3]; post-emergence, dosage 80 g/ha",90%
same,herbicidal action ECHCG,"[4]; post-emergence, dosage 80 g/ha",100%
same,herbicidal activity VERPE,[5],100%
same,herbicidal action ALOMY,"[6]; post-emergence, dosage 80 g/ha",90%
CCCn1nnnc1NC(=O)c1ccc(C(F)(F)F)c(CS(C)(=O)=O)c1Cl [Example 3-298],herbicidal activity MATIN,[1],100%
same,herbicidal action SETVI,[2]; Dosage 80 g/ha,80
same,herbicidal action ABUTH,[3]; Dosage 80 g/ha,80
same,herbicidal action ECHCG,[4]; Dosage 80 g/ha,90
same,herbicidal activity VERPE,[5],100%
Cc1c(C(=O)Nc2nnnn2C)ccc(C(F)F)c1C[S+](C)[O-] (stereo not shown) [Example 1-108],herbicidal action MATIN,[1],90%
same,herbicidal action SETVI,[2]; Dosage 80 g/ha,80
same,herbicidal action ABUTH,[3]; Dosage 80 g/ha,80
same,herbicidal action ECHCG,[4]; Dosage 80 g/ha,80
same,herbicidal action VERPE,[5],90%
Cn1nnnc1NC(=O)c1ccc(C(F)(F)F)c(CSCC(F)(F)F)c1Cl [Example 1-311],herbicidal activity MATIN,[1],100%
same,herbicidal action SETVI,[2]; Dosage 80 g/ha,100
same,herbicidal action ABUTH,[3]; Dosage 80 g/ha,100
same,herbicidal action ECHCG,[4]; Dosage 80 g/ha,100
same,herbicidal activity VERPE,[5],100%
same,herbicidal action ALOMY,[6]; Dosage 80 g/ha,100
CCSCc1c(C(F)(F)F)ccc(C(=O)Nc2nnnn2CC)c1C [Example 2-86],herbicidal action MATIN,[1],100%
same,herbicidal action SETVI,"[2]; post-emergence, dosage 80 g/ha",90%
same,herbicidal action ABUTH,"[3]; post-emergence, dosage 80 g/ha",80%
same,herbicidal action ECHCG,"[4]; post-emergence, dosage 80 g/ha",90%
same,herbicidal action VERPE,[5],100%
same,herbicidal action ALOMY,"[6]; post-emergence, dosage 80 g/ha",90%
COc1c(C(=O)Nc2nnnn2C)ccc(Cl)c1CSC [Example 1-570],herbicidal action MATIN,[1],100%
same,Herbicidal action against SETVI,"[2]; post-emergence, dosage 80 g/ha",80
same,Herbicidal action against ABUTH,"[3]; post-emergence, dosage 80 g/ha",90
same,Herbicidal action against ECHCG,"[4]; post-emergence, dosage 80 g/ha",100
same,herbicidal action VERPE,[5],80%
CCCn1nnnc1NC(=O)c1ccc(S(C)(=O)=O)c(CSC)c1C [Example 3-37],herbicidal action MATIN,[1],90%
same,herbicidal action SETVI,[2]; Dosage 80 g/ha,90
same,herbicidal action ABUTH,[3]; Dosage 80 g/ha,80
same,herbicidal action ECHCG,[4]; Dosage 80 g/ha,100
same,herbicidal action VERPE,[5],100%
CCn1nnnc1NC(=O)c1ccc(S(C)(=O)=O)c(CS(C)(=O)=O)c1Cl [Example 2-280],herbicidal action MATIN,[1],90%
same,Herbicidal action against SETVI,"[2]; post-emergence, dosage 80 g/ha",80
same,Herbicidal action against ECHCG,"[4]; post-emergence, dosage 80 g/ha",90
same,herbicidal action VERPE,[5],100%
CCCn1nnnc1NC(=O)c1ccc(C(F)(F)F)c(CS(C)(=O)=O)c1Br [Example 3-382],herbicidal action MATIN,[1],100%
same,herbicidal action SETVI,[2]; Dosage 80 g/ha,100
same,herbicidal action ABUTH,[3]; Dosage 80 g/ha,100
same,herbicidal action ECHCG,[4]; Dosage 80 g/ha,90
same,herbicidal action VERPE,[5],100%
CCn1nnnc1NC(=O)c1ccc(C(F)F)c(C[S+](C)[O-])c1SC (stereo not shown) [Example 2-171],herbicidal activity MATIN,[1],100%
same,herbicidal action SETVI,[2]; Dosage 80 g/ha,90
same,herbicidal action ABUTH,[3]; Dosage 80 g/ha,100
same,herbicidal action ECHCG,[4]; Dosage 80 g/ha,90
same,herbicidal activity VERPE,[5],100%
CCCn1nnnc1NC(=O)c1ccc(C(F)F)c(CS(C)(=O)=O)c1SC [Example 3-172],herbicidal activity MATIN,[1],100%
same,herbicidal action ABUTH,[3]; Dosage 80 g/ha,100
same,herbicidal action ECHCG,[4]; Dosage 80 g/ha,90
same,herbicidal activity VERPE,[5],100%
Cn1nnnc1NC(=O)c1ccc(C(F)(F)F)c(CS(C)(=O)=O)c1C(F)(F)C(F)(F)F [Example 1-552],herbicidal activity MATIN,[1],100%
same,herbicidal action SETVI,[2]; Dosage 80 g/ha,80
same,herbicidal action ABUTH,[3]; Dosage 80 g/ha,90
same,herbicidal action ECHCG,[4]; Dosage 80 g/ha,90
same,herbicidal activity VERPE,[5],100%
CCCn1nnnc1NC(=O)c1ccc(S(C)(=O)=O)c(CS(C)(=O)=O)c1C [Example 3-39],herbicidal action MATIN,[1],100%
same,herbicidal action SETVI,[2]; Dosage 80 g/ha,90
same,herbicidal action ABUTH,[3]; Dosage 80 g/ha,90
same,herbicidal action ECHCG,[4]; Dosage 80 g/ha,90
same,herbicidal action VERPE,[5],100%
CCCn1nnnc1NC(=O)c1ccc(C(F)(F)F)c(CSC)c1SC [Example 3-161],herbicidal action MATIN,[1],100%
same,herbicidal action SETVI,[2]; Dosage 80 g/ha,100
same,herbicidal action ABUTH,[3]; Dosage 80 g/ha,100
same,herbicidal action ECHCG,[4]; Dosage 80 g/ha,90
same,herbicidal action VERPE,[5],100%
CCCn1nnnc1NC(=O)c1ccc(C(F)F)c(CS(=O)(=O)CC)c1Cl [Example 3-325],herbicidal activity MATIN,[1],100%
same,herbicidal action SETVI,[2]; Dosage 80 g/ha,100
same,herbicidal action ABUTH,[3]; Dosage 80 g/ha,100
same,herbicidal action ECHCG,[4]; Dosage 80 g/ha,100
CCCn1nnnc1NC(=O)c1ccc(C(F)(F)F)c(CSCC)c1C [Example 3-86],herbicidal action MATIN,[1],100%
same,herbicidal action SETVI,[2]; Dosage 80 g/ha,90
same,herbicidal action ABUTH,[3]; Dosage 80 g/ha,80
same,herbicidal action ECHCG,[4]; Dosage 80 g/ha,90
same,herbicidal action VERPE,[5],100%
"CCS(=O)(=O)c1c(C(F)(F)F)ccc(C(=O)Nc2nnnn2C)c1Br [Example V-13, 2-bromo-3-(ethylsulfonyl)-N-(1-methyl-1-1H-tetrazol-5-yl)-4-(trifluoromethyl)benzamide, reference compound]",Herbicidal action against MATIN,[1]; 80 g of a.i./ha,0
same,Herbicidal action against SETVI,[2]; [7],0
same,Herbicidal action against ECHCG,[4]; [7],0
same,Herbicidal action against VERPE,[5]; 80 g of a.i./ha,0
same,Herbicidal action against ALOMY,[6]; [7],0
CCCn1nnnc1NC(=O)c1ccc(C(F)(F)F)c(C[S+](C)[O-])c1OC (stereo not shown) [Example 3-135],herbicidal action MATIN,[1],100%
same,herbicidal action SETVI,[2]; Dosage 80 g/ha,100
same,herbicidal action ABUTH,[3]; Dosage 80 g/ha,100
same,herbicidal action ECHCG,[4]; Dosage 80 g/ha,100
CCCn1nnnc1NC(=O)c1ccc(C(F)F)c(CSC)c1SC [Example 3-170],herbicidal activity MATIN,[1],100%
same,herbicidal action ABUTH,[3]; Dosage 80 g/ha,100
same,herbicidal action ECHCG,[4]; Dosage 80 g/ha,90
same,herbicidal activity VERPE,[5],100%
CCCn1nnnc1NC(=O)c1ccc(C(F)F)c(CS(C)(=O)=O)c1Cl [Example 3-322],herbicidal activity MATIN,[1],100%
same,herbicidal action SETVI,[2]; Dosage 80 g/ha,80
same,herbicidal action ABUTH,[3]; Dosage 80 g/ha,100
same,herbicidal action ECHCG,[4]; Dosage 80 g/ha,100
same,herbicidal activity VERPE,[5],100%
CCSCc1c(C(F)(F)F)ccc(C(=O)Nc2nnnn2C)c1SCC [Example 1-182],Herbicidal action against MATIN,[1]; 20 g of a.i./ha,80
same,herbicidal activity MATIN,[1],100%
same,herbicidal action SETVI,[2]; Dosage 80 g/ha,90
same,Herbicidal action against SETVI,[2]; [8],70
same,herbicidal action ABUTH,[3]; Dosage 80 g/ha,90
same,Herbicidal action against ABUTH,[3]; [8],70
same,herbicidal action ECHCG,[4]; Dosage 80 g/ha,90
same,Herbicidal action against ECHCG,[4]; [8],80
same,Herbicidal action against VERPE,[5]; 20 g of a.i./ha,90
same,herbicidal activity VERPE,[5],100%
CCCn1nnnc1NC(=O)c1ccc(C(F)F)c(C[S+](C)[O-])c1SC (stereo not shown) [Example 3-171],herbicidal activity MATIN,[1],100%
same,herbicidal action ABUTH,[3]; Dosage 80 g/ha,100
same,herbicidal action ECHCG,[4]; Dosage 80 g/ha,90
same,herbicidal activity VERPE,[5],100%
COc1c(C(=O)Nc2nnnn2C)ccc(C(F)(F)F)c1C[S+](C)[O-] (stereo not shown) [Example 1-135],herbicidal action MATIN,[1],90%
same,herbicidal action SETVI,[2]; Dosage 80 g/ha,100
same,herbicidal action ABUTH,[3]; Dosage 80 g/ha,90
same,herbicidal action ECHCG,[4]; Dosage 80 g/ha,90
same,herbicidal action VERPE,[5],100%
CCn1nnnc1NC(=O)c1ccc(C(F)(F)F)c(C[S+]([O-])CC2CC2)c1Cl (stereo not shown) [Example 2-315],herbicidal activity MATIN,[1],100%
same,herbicidal action SETVI,[2]; Dosage 80 g/ha,100
same,herbicidal action ABUTH,[3]; Dosage 80 g/ha,100
same,herbicidal action ECHCG,[4]; Dosage 80 g/ha,100
same,herbicidal activity VERPE,[5],100%
CCCn1nnnc1NC(=O)c1ccc(C(F)(F)F)c(CS(=O)(=O)CC)c1Cl [Example 3-301],herbicidal action MATIN,[1],100%
same,herbicidal action SETVI,[2]; Dosage 80 g/ha,90
same,herbicidal action ABUTH,[3]; Dosage 80 g/ha,80
same,herbicidal action ECHCG,[4]; Dosage 80 g/ha,90
same,herbicidal action VERPE,[5],100%
